According to US9957257B2, “Amide compounds as 5-HT4 receptor agonists” (SUVEN LIFE SCIENCES LIMITED, priority 2015, dated 2018):

Columns and labels:
[1] = Rodent pharmacokinetic study; type: in vivo, Male wistar rats; conditions: male, Wistar, plasma, rat
Procedure: Male wistar rats (225±25 grams) were used as experimental animals. Three to five animals were housed in each cage. Two days prior to dosing day, male wistar rats (225-250 grams) were anesthetized with isoflurane for surgical placement of jugular vein catheter. Animals were fasted overnight before oral dosing (p.o) and food pellets were allowed 2 hours post dosing, whereas during intravenous dosing food and water were provided as ad libitum. Three rats were dosed with test compounds (3 mg/kg) orally and intravenously (1 mg/kg).
At each time point blood was collected through jugular vein and immediately replenish with an equivalent volume of normal saline from freely moving rats. Collected blood was transferred into a labeled eppendr off containing 10 μL of heparin as anticoagulant. Typically blood samples were collected as following time points: Pre dose, 0.08 (only i.v.), 0.25, 0.5, 1, 2, 4, 6, 8, and 24 hours post dose-(n=3). Blood was centrifuged at 4000 rpm for 10 minutes. Plasma was prepared and stored frozen at −20° C. until analysis. The concentrations of the test compounds were quantified in plasma by qualified LC-MS/MS method using suitable extraction technique. The test compounds were quantified in the calibration range around 2-2000 ng/mL in plasma. Study samples were analyzed using calibration samples in the batch and quality control samples spread across the batch.
Pharmacokinetic parameters Cmax, Tmax, AUCt, T1/2 and Bioavailability were calculated by non-compartmental model using standard non-compartmental model by using WinNonLin 5.0.1 or Phoenix WinNonlin 6.2 version Software package.

[2] = Rodent brain penetration study; type: in vivo, Male Wistar rats; conditions: male, Wistar, rat, 3 mg/kg, oral (gavage), read-out: Single dose Brain Penetration (Cb/Cp)
Procedure: Male Wistar rats (225±25 grams) were used as experimental animals. Three animals were housed in each cage. Animals were given water and food ad libitum throughout the experiment and maintained on a 12 hours light/dark cycle. Brain penetration was determined in discrete manner in rats. One day prior to dosing day, male wistar rats (225-250 grams) were acclimatized. After acclimatization the rats were grouped according to their weight. In each group, 3 animals were kept in individual cage and allowed free access to food and water. At each time point (0.50, 1 and 2 hours) n=3 animals were used. The test compounds were suitably preformulated and administered orally at (free base equivalent) 3 mg/kg. Blood samples were removed via, cardiac puncture by using isoflurane anesthesia. The animals were sacrificed to collect brain tissue. Plasma was separated and brain samples were homogenized and stored frozen at −20° C. until analysis. The concentrations of the test compounds in plasma and brain were determined using LC-MS/MS method. The test compounds were quantified in plasma and brain homogenate by qualified LC-MS/MS method using suitable extraction technique. The test compounds were quantified in the calibration range of 1-500 ng/mL in plasma and brain homogenate. Study samples were analyzed using calibration samples in the batch and quality control samples spread across the batch. Extent of brain-plasma ratio was calculated (Cb/Cp).

[3] = Object recognition task model; type: in vivo, Male Wistar rats; conditions: 0.003 mg/kg, p.o.
Procedure: The cognition enhancing properties of compounds of this invention were estimated by using this model.
Male Wistar rats (230-280 grams) were used as experimental animals. Four animals were housed in each cage. Animals were kept on 20% food deprivation before one day and given water ad libitum throughout the experiment and maintained on a 12 hours light/dark cycle. Also the rats were habituated to individual arenas for 1 hour in the absence of any objects.
One group of 12 rats received vehicle (1 mL/Kg) orally and another set of animals received compound of the formula (I) either orally or i.p., before one hour of the familiar (T1) and choice trial (T2).
The experiment was carried out in a 50×50×50 cm open field made up of acrylic. In the familiarization phase, (T1), the rats were placed individually in the open field for 3 minutes, in which two identical objects (plastic bottles, 12.5 cm height×5.5 cm diameter) covered in yellow masking tape alone (a1 and a2) were positioned in two adjacent corners, 10 cms from the walls. After 24 hours of the (T1) trial for long-term memory test, the same rats were placed in the same arena as they were placed in T1 trial. Choice phase (T2) rats were allowed to explore the open field for 3 minutes in presence of one familiar object (a3) and one novel object (b) (Amber color glass bottle, 12 cm high and 5 cm in diameter). Familiar objects presented similar textures, colors and sizes. During the T1 and T2 trial, explorations of each object (defined as sniffing, licking, chewing or having moving vibrissae whilst directing the nose towards the object at a distance of less than 1 cm) were recorded separately by stopwatch. Sitting on an object was not regarded as exploratory activity, however, it was rarely observed.
T1 is the total time spent exploring the familiar objects (a1+a2).
T2 is the total time spent exploring the familiar object and novel object (a3+b).
The object recognition test was performed as described by Behaviour Brain Research, 31 (1988), 47-59.

Radial arm maze = type: in vivo, rats; conditions: p.o.
Excerpt: The cognition enhancing properties of test compounds of this invention were estimated by using this model.
Radial arm maze consists of a central hub of 45 cm diameter. Each arm was of dimension 42.5×15×24 cm. The maze was elevated to a height of 1 m above the ground. The animals were placed on a restricted diet until they reached approximately 85% of their free feeding weight. During this diet restriction period animals were habituated to the novel feed (pellets). Once the rats reached approximately 85% of their free feeding weight, rats were habituated to the maze on the 1st and 2nd day. […] Animals were randomized on day 2. On the subsequent days the treatment was given as per the allotment. Each animal was introduced into the maze individually for a period of 10 minutes. The arms were baited only once and the animal had to learn the rule that repeated arm entries would not be rewarded. The trial ended once the rat had visited 16 arms or 10 minutes were over or all the pellets were eaten. The arm entries were recorded using the software. Once the trial was over the rat was removed and the maze was cleaned using soap water.

Nc1c(Cl)cc(C(=O)NCC2C3CN(CC4CCOCC4)CC23)c2c1CCCO2.O=C(O)C(O)C(O)C(=O)O (stereo not drawn) [Example 3, 5-Amino-6-chloro-N-{[3-(tetrahydro-2H-pyran-4-ylmethyl)-3-azabicyclo[3.1.0]hex-6-yl]methyl}chroman-8-carboxamide L(+)-tartarate]
AUC(0-t) ([1]; 1 mg/kg, intravenous (bolus)): 158 ± 7 ng·h/mL | half-life ([1]; 1 mg/kg, intravenous (bolus)): 1.9 h | bioavailability ([1]; 3 mg/kg oral vs 1 mg/kg intravenous): 68 ± 22% | AUC(0-t) ([1]; 3 mg/kg, oral (gavage)): 324 ± 105 ng·h/mL | Cmax ([1]; 3 mg/kg, oral (gavage)): 131 ± 35 ng/mL | Tmax ([1]; 3 mg/kg, oral (gavage)): 0.42 h | half-life ([1]; 3 mg/kg, oral (gavage)): 1.6 h | Kp [2]: 1.03 ± 0.02 | Exploration time mean ± S.E.M, Familiar object [3]: 9.9 ± 2.06 s | Exploration time mean ± S.E.M, Novel object [3]: 17.58 ± 2.24 s | Inference [3]: Active | Reversal of Scopolamine Induced amnesia - Effective dose range (Radial arm maze): 0.03 mg/kg, p.o.
